US20100063065A1 (Inpharmatica Limited, priority 2005, published 2010)

These compounds were tested against T1, PPARδ (Homo sapiens, UniProt Q03181) (assay: Transactivation assay (PPARδ GAL4 assay) in transiently transfected HEK293 cells). Conditions: luciferase reporter, Table 2.
T1 construct: fused to amino acids 147-441 of PPARδ downstream of CMV promoter; expressed in transfected cells; host or cells: HEK293 cells, transiently transfected with pFACMV-PPARδ using Fugene
T1 sequence (Q03181 147-441): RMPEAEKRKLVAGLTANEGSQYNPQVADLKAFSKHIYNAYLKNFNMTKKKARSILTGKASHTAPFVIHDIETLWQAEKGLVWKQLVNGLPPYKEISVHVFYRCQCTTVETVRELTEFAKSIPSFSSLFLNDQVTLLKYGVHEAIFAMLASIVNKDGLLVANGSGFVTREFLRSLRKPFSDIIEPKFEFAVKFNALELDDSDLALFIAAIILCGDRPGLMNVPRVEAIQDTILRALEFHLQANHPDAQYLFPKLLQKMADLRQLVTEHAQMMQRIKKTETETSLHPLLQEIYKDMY
Format: cell-based
In short: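 HEK293 cells transiently co-transfected with GAL4 DBD (aa 1-147)–PPARδ (aa 147-441) fusion and 5×GAL4-luciferase reporter, then exposed 24 h to compound (final 0-30 μM) in OptiMEM at 37° C. Luminescence read; activity as percent of GW501516 control, EC50 from sigmoidal dose-response fit.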

Compound | EC50 [nM]
CCc1cc(C(=O)c2cc3ccccc3o2)c(NC(=O)CSCC(=O)O)s1 [Example 140, {[3-(Benzofuran-2-carbonyl)-5-ethyl-thiophen-2-ylcarbamoyl]-methylsulfanyl}-acetic acid] | 1000 to 30000
CCc1cc(C(=O)c2cccc(OC(F)(F)F)c2)c(NC(=O)CSCC(=O)O)s1 [Example 143, {[5-Ethyl-3-(3-trifluoromethoxy-benzoyl)-thiophen-2-ylcarbamoyl]-methylsulfanyl}-acetic acid] | 1000 to 30000
CCc1cc(C(=O)c2cc(C)n(C)n2)c(NC(=O)CSCC(=O)O)s1 [Example 144, {[3-(1,5-Dimethyl-1H-pyrazole-3-carbonyl)-5-ethyl-thiophen-2-ylcarbamoyl]-methylsulfanyl}-acetic acid] | 1000 to 30000
CCc1cc(C(=O)c2cc3ccccc3n2C)c(NC(=O)CSCC(=O)O)s1 [Example 149, {[5-Ethyl-3-(1-methyl-1H-indole-2-carbonyl)-thiophen-2-ylcarbamoyl]-methylsulfanyl}-acetic acid] | 1000 to 30000
CCc1cc(C(=O)c2ccc(OC(F)(F)F)cc2)c(NC(=O)C(C)NCC(=O)O)s1 (stereo not drawn) [Example 158, {1-[5-Ethyl-3-(4-trifluoromethoxy-benzoyl)-thiophen-2-ylcarbamoyl]-ethylamino}-acetic acid] | 100 to 1000
CCc1cc(C(=O)c2ccc(OC(F)(F)F)cc2)c(NC(=O)CN2CCCC(C(=O)O)C2)s1 (stereo not drawn) [Example 159, 1-{[5-Ethyl-3-(4-trifluoromethoxy-benzoyl)-thiophen-2-ylcarbamoyl]-methyl}-piperidine-3-carboxylic acid] | 100 to 1000
CCc1cc(C(=O)c2ccc(OC(F)(F)F)cc2)c(NC(=O)CN[C@@H](C)C(=O)O)s1 [Example 160, (S)-2-({[5-Ethyl-3-(4-trifluoromethoxy-benzoyl)-thiophen-2-ylcarbamoyl]-methyl}-amino)-propionic acid] | 100 to 1000
CCc1cc(C(=O)c2ccc(OC(F)(F)F)cc2)c(NC(=O)CN[C@H](C)C(=O)O)s1 [Example 161, (R)-2-({[5-Ethyl-3-(4-trifluoromethoxy-benzoyl)-thiophen-2-ylcarbamoyl]-methyl}-amino)-propionic acid] | 100 to 1000
CCc1cc(C(=O)c2ccc(OC(F)(F)F)cc2)c(NC(=O)CN2CCC(C(=O)O)C2)s1 (stereo not drawn) [Example 162, 1-{[5-Ethyl-3-(4-trifluoromethoxy-benzoyl)-thiophen-2-ylcarbamoyl]-methyl}-pyrrolidine-3-carboxylic acid] | 100 to 1000
CCc1cc(C(=O)c2ccc(OC(F)(F)F)cc2)c(NC(=O)CN2CCC(C(=O)O)CC2)s1 [Example 163, 1-{[5-Ethyl-3-(4-trifluoromethoxy-benzoyl)-thiophen-2-ylcarbamoyl]-methyl}-piperidine-4-carboxylic acid] | 100 to 1000
CCc1cc(C(=O)c2ccc(OC(F)(F)F)cc2)c(NC(=O)CN2CCCCC2C(=O)O)s1 (stereo not drawn) [Example 165, 1-{[5-Ethyl-3-(4-trifluoromethoxy-benzoyl)-thiophen-2-ylcarbamoyl]-methyl}-piperidine-2-carboxylic acid] | 100 to 1000
CCc1cc(C(=O)c2ccc(OC(F)(F)F)cc2)c(NC(=O)CNC2(C(=O)O)CCCCC2)s1 [Example 166, 1-({[5-Ethyl-3-(4-trifluoromethoxy-benzoyl)-thiophen-2-ylcarbamoyl]-methyl}-amino)-cyclohexanecarboxylic acid] | 100 to 1000
CCc1cc(C(=O)c2ccc(OC(F)(F)F)cc2)c(NC(=O)CN2CCC[C@H]2C(=O)O)s1 [Example 167, (S)-1-{[5-Ethyl-3-(4-trifluoromethoxy-benzoyl)-thiophen-2-ylcarbamoyl]-methyl}-pyrrolidine-2-carboxylic acid] | 1000 to 30000
CCc1cc(C(=O)c2ccc(OC(F)(F)F)cc2)c(NC(=O)CN2CCC[C@@H]2C(=O)O)s1 [Example 168, (R)-1-{[5-Ethyl-3-(4-trifluoromethoxy-benzoyl)-thiophen-2-ylcarbamoyl]-methyl}-pyrrolidine-2-carboxylic acid] | 100 to 1000
CCc1cc(C(=O)c2ccc(OC(F)(F)F)c(Cl)c2)c(NC(=O)CN[C@H](C(=O)O)C(C)C)s1 [Example 169, (S)-2-({[3-(3-Chloro-4-trifluoromethoxy-benzoyl)-5-ethyl-thiophen-2-ylcarbamoyl]-methyl}-amino)-3-methyl-butyric acid] | 100 to 1000
CCc1cc(C(=O)c2ccc(Cl)c(Cl)c2)c(NC(=O)CN[C@H](C(=O)O)C(C)C)s1 [Example 170, (S)-2-({[3-(3,4-Dichloro-benzoyl)-5-ethyl-thiophen-2-ylcarbamoyl]-methyl}-amino)-3—methyl-butyric acid] | 100 to 1000
CCc1cc(C(=O)c2ccc(OC(F)(F)F)cc2)c(NC(=O)CN2CCC[C@]2(C)C(=O)O)s1 [Example 172, (R)-1-{[5-Ethyl-3-(4-trifluoromethoxy-benzoyl)-thiophen-2-ylcarbamoyl]-methyl}-2-methyl-pyrrolidine-2-carboxylic acid] | 100 to 1000

Now from value to compound:

EC50 [nM] | Compound
< 100 | Cc1cc(C(=O)c2ccc(OC(F)(F)F)cc2)c(NC(=O)CSc2ccc(OCC(=O)O)cc2)s1 [Example 141, (4-{[5-Methyl-3-(4-trifluoromethoxy-benzoyl)-thiophen-2-ylcarbamoyl]-methylsulfanyl}-phenoxy)-acetic acid]
< 100 | CCc1cc(C(=O)c2ccc(OC(F)(F)F)c(Cl)c2)c(NC(=O)CSCC(=O)O)s1 [Example 142, {[3-(3-Chloro-4-trifluoromethoxy-benzoyl)-5-ethyl-thiophen-2-ylcarbamoyl]-methylsulfanyl}-acetic acid]
100 to 1000 | CCc1cc(C(=O)c2ccc(-c3ccccn3)cc2)c(NC(=O)CSCC(=O)O)s1 [Example 145, {[5-Ethyl-3-(4-pyridin-2-yl-benzoyl)-thiophen-2-ylcarbamoyl]-methylsulfanyl}-acetic acid]
< 100 | CCc1cc(C(=O)c2ccc(OC(F)(F)F)cc2)c(NC(=O)CCC(C)(C)C(=O)O)s1 [Example 146, 4-[5-Ethyl-3-(4-trifluoromethoxy-benzoyl)-thiophen-2-ylcarbamoyl]-2,2-dimethyl-butyric acid]
100 to 1000 | CCc1cc(C(=O)c2ccc(Cl)cc2)c(NC(=O)CCC(C)(C)C(=O)O)s1 [Example 147, 4-[3-(4-Chloro-benzoyl)-5-ethyl-thiophen-2-ylcarbamoyl]-2,2-dimethyl-butyric acid]
100 to 1000 | CCc1cc(C(=O)c2ccc(OC(F)(F)F)c(F)c2)c(NC(=O)CCC(C)(C)C(=O)O)s1 [Example 148, 4-[5-Ethyl-3-(3-fluoro-4-trifluoromethoxy-benzoyl)-thiophen-2-ylcarbamoyl]-2,2-dimethyl-butyric acid]
< 100 | CCc1cc(C(=O)c2cc3cc(OC(F)(F)F)ccc3n2C)c(NC(=O)CSCC(=O)O)s1 [Example 150, {[5-Ethyl-3-(1-methyl-5-trifluoromethoxy-1H-indole-2-carbonyl)-thiophen-2-ylcarbamoyl]-methylsulfanyl}-acetic acid]
< 100 | CCc1cc(C(=O)c2cc3cc(Cl)ccc3n2C)c(NC(=O)CSCC(=O)O)s1 [Example 151, {[3-(5-Chloro-1-methyl-1H-indole-2-carbonyl)-5-ethyl-thiophen-2-ylcarbamoyl]-methylsulfanyl}-acetic acid]
< 100 | CCc1cc(C(=O)c2cc3cc(OC(F)(F)F)ccc3n2C)c(NC(=O)CCC(C)(C)C(=O)O)s1 [Example 152, 4-[5-Ethyl-3-(1-methyl-5-trifluoromethoxy-H-indole-2-carbonyl)-thiophen-2-ylcarbamoyl]-2,2-dimethyl-butyric acid]
100 to 1000 | CCc1cc(C(=O)c2nc3ccc(OC(F)(F)F)cc3s2)c(NC(=O)CSCC(=O)O)s1 [Example 153, {[5-Ethyl-3-(6-trifluoromethoxy-benzothiazole-2-carbonyl)-thiophen-2-ylcarbamoyl]-methylsulfanyl}-acetic acid]
100 to 1000 | CCc1cc(C(=O)c2nc3ccc(Cl)cc3s2)c(NC(=O)CSCC(=O)O)s1 [Example 154, {[3-(6-Chloro-benzothiazole-2-carbonyl)-5-ethyl-thiophen-2-ylcarbamoyl]-methylsulfanyl}-acetic acid]
100 to 1000 | CCc1cc(C(=O)c2nc3cc(Cl)ccc3s2)c(NC(=O)CSCC(=O)O)s1 [Example 155, {[3-(5-Chloro-benzothiazole-2-carbonyl)-5-ethyl-thiophen-2-ylcarbamoyl]-methylsulfanyl}-acetic acid]
100 to 1000 | CCc1cc(C(=O)c2ccc3cc(Cl)ccc3n2)c(NC(=O)CSCC(=O)O)s1 [Example 156, {[3-(6-Chloro-quinoline-2-carbonyl)-5-ethyl-thiophen-2-ylcarbamoyl]-methylsulfanyl}-acetic acid]
100 to 1000 | CCc1cc(C(=O)c2cn(C)c3ccc(Cl)cc23)c(NC(=O)CSCC(=O)O)s1 [Example 157, {[3-(5-Chloro-1-methyl-1H-indole-3-carbonyl)-5-ethyl-thiophen-2-ylcarbamoyl]-methylsulfanyl}-acetic acid]
< 100 | CCc1cc(C(=O)c2ccc(OC(F)(F)F)cc2)c(NC(=O)CNC2(C(=O)O)CCC2)s1 [Example 164, 1-({[5-Ethyl-3-(4-trifluoromethoxy-benzoyl)-thiophen-2-ylcarbamoyl]-methyl}-amino)-cyclobutanecarboxylic acid]
< 100 | CCc1cc(C(=O)c2ccc(OC(F)(F)F)c(Cl)c2)c(NC(=O)CNC(C)(C)C(=O)O)s1 [Example 171, 2-({[3-(3-Chloro-4-trifluoromethoxy-benzoyl)-5-ethyl-thiophen-2-ylcarbamoyl]-methyl}-amino)-2-methyl-propionic acid]
